The values that follow come from patent publication US20020061838A1, “Peptide pharmaceutical formulations” (priority 2000, published 2002).

A short description of series [1]: Long-term stability in the preferred embodiment (HPLC and/or bioactivity).
Procedure: The vials containing 1 mL of formulated drug were put into thermostatted chambers and assayed for % peptide remaining as a function of time after storage at different temperatures. Bioactivity of the formulations at the time points was also measured.
GRF activity was assessed similarly using a cell line containing an expressed GRF receptor and monitoring the response of cell to GRF by the cAMP-responsive secreted alkaline phosphatase reporter system.
For series [2] the following is noted: pH 7.4; cited from earlier work.
Series [3] can be described thus: Stability of GLP-1, PTH and GRF in the preferred formulation by reversed phase HPLC (percent peptide remaining). Conditions: 10 mM acetate; for Percent peptide remaining: 5.07% (w/v) D-mannitol, pH 4.7; for stability: 4, 8, and 10 mg/mL, pH 4.7, 5.07% D-mannitol.
Procedure: The vials were stored at the indicated temperatures for the indicated times. Samples were removed and assayed for the loss of parent peptide by HPLC, using a reversed phase C18 (1×15 cm) analytical column. Samples (10 μl) were injected directly and resolved with a gradient of acetonitrile in water, in the presence of 0.1% trifluoroacetic acid. Percent peptide remaining at the times indicated was calculated as the area of the intact peptide divided by the total area of the intact peptide plus that of the decomposition products times 100.
Series [4] is described as follows: Total GRF in plasma after intravenous bolus in a rat. It counts as in vivo. The conditions noted are these: intravenous bolus of 20 μg, 10 mM sodium acetate, 5.07% D-mannitol, pH 4.7.
Procedure: Total GRF detected in the plasma of a rat following intravenous administration of 20 μg of GRF in the preferred formulation (4 mg/mL GRF dissolved in 10 mM sodium acetate, 5.07% D-mannitol, adjusted to pH 4.7).
Series [5] can be described thus: Tolerability and response after subcutaneous or intravenous delivery of the formulations in humans.

In the case of PTH(1-34)OH, the “period over which the peptide was stable” value in series [1] (about 0.005 to 1.0 mg/mL, 4° C., inventive formulations) was 4 months. Also, in series [2], the “solubility at physiological pH” value is “up to 4 mg/mL”.

On to `CC[C@H](C)[C@H](NC(=O)[C@H](C)NC(=O)[C@H](CC(=O)O)NC(=O)[C@H](C)NC(=O)[C@@H](N)Cc1ccc(O)cc1)C(=O)N[C@@H](Cc1ccccc1)C(=O)N[C@H](C(=O)N[C@@H](CC(N)=O)C(=O)N[C@@H](CO)C(=O)N[C@@H](Cc1ccc(O)cc1)C(=O)N[C@@H](CCCNC(=N)N)C(=O)N[C@@H](CCCCN)C(=O)N[C@H](C(=O)N[C@@H](CC(C)C)C(=O)NCC(=O)N[C@@H](CCC(N)=O)C(=O)N[C@@H](CC(C)C)C(=O)N[C@@H](CO)C(=O)N[C@@H](C)C(=O)N[C@@H](CCCNC(=N)N)C(=O)N[C@@H](CCCCN)C(=O)N[C@@H](CC(C)C)C(=O)N[C@@H](CC(C)C)C(=O)N[C@@H](CCC(N)=O)C(=O)N[C@@H](CC(=O)O)C(=O)N[C@H](C(=O)N[C@@H](CCSC)C(=O)N[C@@H](CO)C(=O)N[C@@H](CCCNC(=N)N)C(=O)N[C@@H](CCC(N)=O)C(=O)N[C@@H](CCC(N)=O)C(=O)NCC(=O)N[C@@H](CCC(=O)O)C(=O)N[C@@H](CO)C(=O)N[C@@H](CC(N)=O)C(=O)N[C@@H](CCC(N)=O)C(=O)N[C@@H](CCC(=O)O)C(=O)N[C@@H](CCCNC(=N)N)C(=O)NCC(=O)N[C@@H](C)C(=O)N[C@@H](CCCNC(=N)N)C(=O)N[C@@H](C)C(=O)N[C@@H](CCCNC(=N)N)C(=O)N[C@@H](CC(C)C)C(N)=O)[C@@H](C)CC)C(C)C)[C@@H](C)O` [GRF, GRF(1-44)amide], for which the Percent peptide remaining is listed as 98% in series [3] (4 mg/mL, 14 days, 4° C.); 96% in series [3] (4 mg/mL, 14 days, 25° C.); 63% in series [3] (4 mg/mL, 14 days, 50° C.); 98% in series [3] (8 mg/mL, 14 days, 4° C.); 96% in series [3] (8 mg/mL, 14 days, 25° C.); 63% in series [3] (8 mg/mL, 14 days, 50° C.). The Percent peptide remaining is 98% in series [3] (10 mg/mL, 14 days, 4° C.); 96% in series [3] (10 mg/mL, 14 days, 25° C.); 63% in series [3] (10 mg/mL, 14 days, 50° C.). Moreover, the stability result in series [3] (25° C., 14 days) is reported as “at least 96%”; in series [3] (50° C., 14 days), 63%; in series [3] (−20° C. to 4° C., over 14 days) it was “at least 98%”. Besides, the “appearance of peptide in blood plasma” value in series [4] is recorded as “rapidly appears in the blood plasma”. Moreover, the “stability (additional formulations, extended periods)” value in series [1] (4-6 weeks at 25° C.) and in series [1] (12 months at 4° C.) was “at least 90%” each time. For the same compound, the “stability compared with the GLP-1 formulations” value in series [1] (formulations where the peptide is GRF or PTH, Drawings 3, 5) is recorded as “comparable stability”. In addition, the complications of delivery entry in series [5] (human subjects, intravenous and subcutaneous delivery, preferred formulations) is “no significant complications”. Also, the “discomfort at the injection site” value in series [5] (humans, subcutaneous, about 1 mL) is “no apparent discomfort”.
